Consider 28 compounds from patent US20260184701A1, “FIVE-MEMBERED HETEROARYL COMPOUND AND AGRICULTURAL AND HORTICULTURAL FUNGICIDE” (Nippon Soda Co., Ltd., priority 2022, published 2026).

Molecules are shown by their SMILES. Some results are limits rather than exact numbers.

In general, inhibition of growth refers to the percentage by which the read-out fell short of the control. Higher therefore signals a strong effect.

In assay [1] the test system is Colletotrichum acutatum. Kind of assay: Fungicidal effect test against fungus causing apple anthracnose (spore suspension, turbidity). It counts as cell-based. The settings on record: 96 h, 25 ppm by volume, Czapek medium, 25° C., four days.
In assay [2] the test system is Glomerella cingulata. Description: Fungicidal effect test against fungi causing grape ripe rot disease (spore suspension, turbidity). It counts as cell-based. The settings on record: Colletotrichum gloeosporioides, 72 h; 25 ppm by volume; Vogel medium; 25° C., three days.
For assay [3], the system named is Botrytis cinerea. Kind of assay: Control test of cucumber gray mold (sprayed young cucumber seedlings, inoculated). The settings on record: in Cucumis sativus, 96 h, read-out: control value.
Procedure: Water was added to the emulsion to obtain a drug liquid in which the concentration of the five-membered heteroaryl compound according to the present invention reached a predetermined concentration. Then, the drug liquid was sprayed onto young cucumber seedlings cultivated in a nursery pot (variety “Jihai”-based, cotyledon stage), and then air-dried. […] They were left still in a moist room at 20° C.

In the case of `C=C/C(=C\C=C\C)CCN/C(=N\OC)c1c(Oc2cccc(Br)c2)cnn1C` [a-2], the inhibition of growth at 25 ppm in assay [1] and in assay [2] was at least 75% in each case. Besides, the pest or weed control at 25 ppm in assay [3] is at least 75%.

Consider `Cc1ccc(CC2CON=C(c3c(Oc4cccc(C5CC5)c4)cnn3C)N2)c(C)c1` (stereo not drawn) [a-3], for which the inhibition of growth at 25 ppm in assay [1] and in assay [2] was at least 75% each time. The pest or weed control at 125 ppm in assay [3] is at least 75%.

Take `C=C(C)/C(=C\C=C\C)CC(CON)NCc1c(Oc2ccc(Br)cc2)cnn1C` (stereo not drawn) [a-5]: the inhibition of growth at 25 ppm in assay [1] and in assay [2] was at least 75% each time.

`CO/N=C(\NCCC1CC=C(C)C=C1C)c1c(Oc2ccc(C3CC3)cc2)cnn1C` (stereo not drawn) [a-6]: in assay [2], the inhibition of growth at 25 ppm was at least 75%.

In the case of `Cc1ccc(Oc2cnn(C)c2C2=NOCC(Cc3ccc(C)cc3C)N2)cc1` (stereo not drawn) [a-7], the inhibition of growth at 25 ppm in assay [1] and in assay [2] was at least 75% throughout.

In the case of `CO/N=C(\NCCc1ccc(C)cc1)c1c(Oc2cccc(I)c2)cnn1C` [a-8], the inhibition of growth at 25 ppm in assay [1] and in assay [2] was at least 75% throughout. Also, in assay [3], the pest or weed control at 125 ppm was at least 75%.

As to `CCc1cccc(Oc2cnn(C)c2C2=NOCC(Cc3ccc(C)cc3C)N2)c1` (stereo not drawn) [a-10, 5-(2,4-dimethylbenzyl)-3-(4-(3-ethylphenoxy)-1-methyl-1H-pyrazol-5-yl)-5,6-dihydro-4H-1,2,4-oxadiazine], the inhibition of growth at 25 ppm in assay [1] and in assay [2] was at least 75% each time.

`Cc1cccc(Oc2nnn(C)c2C2=NOCC(Cc3ccc(C)cc3C)N2)c1` (stereo not drawn) [a-12]: the inhibition of growth at 25 ppm in assay [1] is at least 75%. The inhibition of growth at 25 ppm in assay [2] was at least 75%. Also, in assay [3], the pest or weed control at 25 ppm is at least 75% and the pest or weed control at 125 ppm is at least 75%.

Turning to `CO/N=C(\NCCc1ccc(C)cc1)c1c(Oc2ccc(Cl)c(C)c2)nnn1C` [a-13], the inhibition of growth at 25 ppm in assay [1] and in assay [2] was at least 75% each time.

Turning to `CO/N=C(\NCCc1ccc(C)cc1C)c1c(Oc2cccc(C(F)(F)F)c2F)nnn1C` [a-16], the inhibition of growth at 25 ppm in assay [1] and in assay [2] was at least 75% in each case.

Turning to `C/C=C(C)\C=C(\C)CCCN/C(=N\OC)c1c(Oc2cccc(Cl)c2)cnn1C` [a-17], the inhibition of growth at 25 ppm in assay [1] and in assay [2] was at least 75% throughout.

As for `Cc1cccc(Oc2c(Cl)nn(C)c2C2NOCC(Cc3ccc(C)cc3C)N2)c1` (stereo not drawn) [a-18], the inhibition of growth at 25 ppm in assay [1] and in assay [2] was at least 75% throughout.

Take `C/C=C(C)\C=C(\C)CCC1CON=C(c2c(Oc3cccc(Br)c3F)cnn2C)N1` (stereo not drawn) [a-19]: the inhibition of growth at 25 ppm in assay [1] and in assay [2] was at least 75% each time.

Regarding `CCn1ncc(Oc2cccc(C)c2)c1CNC(CON)Cc1ccc(C)cc1C` (stereo not drawn) [a-20], the inhibition of growth at 25 ppm in assay [1] and in assay [2] was at least 75% in each case.

With `C/C=C(Cl)\C=C(\Cl)CCC1CON=C(c2c(Oc3cccc(C)c3)cnn2CC)N1` (stereo not drawn) [a-21], the inhibition of growth at 25 ppm in assay [1] and in assay [2] was at least 75% in each case.

Take `C=C/C(=C\C=C\Br)CCN/C(=N\OC)c1c(Oc2cccc(C)c2)cnn1CC` [a-22]: the inhibition of growth at 25 ppm in assay [1] and in assay [2] was at least 75% each time.

On to `CO/N=C(\NCCc1ccc(Br)cc1)c1c(Oc2cccc(C)c2)cnn1C` [a-23], for which the inhibition of growth at 25 ppm in assay [1] and in assay [2] was at least 75% throughout.

Take `Cc1ccc(CC2CON=C(c3c(Oc4cccc(Br)c4)cnn3CC(F)(F)F)N2)cc1` (stereo not drawn) [a-24]: the inhibition of growth at 25 ppm in assay [1] and in assay [2] was at least 75% throughout.

Regarding `Cn1ncc(Oc2cccc(C(F)(F)F)c2)c1C1=NOCC(c2cccs2)N1` (stereo not drawn) [a-25, 3-(1-methyl-4-(3-(trifluoromethyl)phenoxy)-1H-pyrazol-5-yl)-5-(thiophen-2-yl)-5,6-dihydro-4H-1,2,4-oxadiazine], the inhibition of growth at 25 ppm in assay [2] was at least 75%.

In the case of `Cc1ccc(C2CON=C(c3c(Oc4cccc(C(F)(F)F)c4)cnn3C)N2)s1` (stereo not drawn) [a-26, 3-(1-methyl-4-(3-(trifluoromethyl)phenoxy)-1H-pyrazol-5-yl)-5-(5-methylthiophen-2-yl)-5,6-dihydro-4H-1,2,4-oxadiazine], the inhibition of growth at 25 ppm in assay [1] and in assay [2] was at least 75% in each case.

On to `C=C/C(=C\C=C\C)CC1CON=C(c2c(Oc3cccc(C)c3)cnn2C(C)C)N1` (stereo not drawn) [a-27], for which, in assay [1], the inhibition of growth at 25 ppm is at least 75%. In assay [2], this compound showed an inhibition of growth at 25 ppm of at least 75%. Also, in assay [3], the pest or weed control at 25 ppm was at least 75% and the pest or weed control at 125 ppm is at least 75%.

In the case of `Cc1cc(C2CON=C(c3c(Oc4cccc(C(F)(F)F)c4)cnn3C)N2)c(C)s1` (stereo not drawn) [a-28], the inhibition of growth at 25 ppm in assay [1] and in assay [2] was at least 75% throughout.

In assay [2], `Cc1ccc(C(CON)NCc2c(Oc3cccc(C(F)(F)F)c3)cnn2C)o1` (stereo not drawn) [a-29] yielded an inhibition of growth at 25 ppm of at least 75%.

For the compound `CCn1nc(Cl)c(Oc2cccc(C(F)(F)F)c2)c1C1=NOCC(Cc2ccc(C)cc2C)N1` (stereo not drawn) [a-30, 3-(3-chloro-1-ethyl-4-(3-(trifluoromethyl)phenoxy)-1H-pyrazol-5-yl)-5-(2,4-dimethylbenzyl)-5,6-dihydro-4H-1,2,4-oxadiazine], the inhibition of growth at 25 ppm in assay [1] is at least 75%. Also, the inhibition of growth at 25 ppm in assay [2] is at least 75%. Also, in assay [3], the pest or weed control at 25 ppm was at least 75% and the pest or weed control at 125 ppm is at least 75%.

As for `C=C/C(=C\C=C\C)CC1CON=C(c2c(Oc3cccc(C)c3)c(C)nn2C)N1` (stereo not drawn) [a-31], the inhibition of growth at 25 ppm in assay [1] and in assay [2] was at least 75% throughout.

As to `CO/N=C(\NCCc1ccc(C)cc1C)c1c(Oc2cccc(C#N)c2)cnn1C` [a-33], the inhibition of growth at 25 ppm in assay [1] and in assay [2] was at least 75% in each case.

As to `C/C=C(C#N)\C=C(\C)CCC1CON=C(c2c(Oc3cccc(C)c3)cnn2C)N1` (stereo not drawn) [a-34], the inhibition of growth at 25 ppm in assay [1] and in assay [2] was at least 75% in each case. Also, in assay [3], the pest or weed control at 125 ppm is at least 75%.

With `C/C=C/c1ccc(CC2CON=C(c3c(Oc4cccc(C)c4)cnn3C)N2)c(C)c1` (stereo not drawn) [a-35], the inhibition of growth at 25 ppm in assay [1] and in assay [2] was at least 75% in each case.
